{"source": "patent US20050101618A1", "about": "“Selective erbB2 inhibitor/anti-erbB antibody combinations in the treatment of cancer” (Pfizer Inc, priority 2003, published 2005)", "key": {"[1]": {"molecular_target": "T1, erbB2-autophosphorylation (p-erbB2) (Homo sapiens, UniProt P04626)", "T1 construct": "endogenous in cells; host or cells: BT-474 human breast adenocarcinoma cells grown as subcutaneous xenografts in female athymic mice", "T1 sequence (P04626 23-1255)": "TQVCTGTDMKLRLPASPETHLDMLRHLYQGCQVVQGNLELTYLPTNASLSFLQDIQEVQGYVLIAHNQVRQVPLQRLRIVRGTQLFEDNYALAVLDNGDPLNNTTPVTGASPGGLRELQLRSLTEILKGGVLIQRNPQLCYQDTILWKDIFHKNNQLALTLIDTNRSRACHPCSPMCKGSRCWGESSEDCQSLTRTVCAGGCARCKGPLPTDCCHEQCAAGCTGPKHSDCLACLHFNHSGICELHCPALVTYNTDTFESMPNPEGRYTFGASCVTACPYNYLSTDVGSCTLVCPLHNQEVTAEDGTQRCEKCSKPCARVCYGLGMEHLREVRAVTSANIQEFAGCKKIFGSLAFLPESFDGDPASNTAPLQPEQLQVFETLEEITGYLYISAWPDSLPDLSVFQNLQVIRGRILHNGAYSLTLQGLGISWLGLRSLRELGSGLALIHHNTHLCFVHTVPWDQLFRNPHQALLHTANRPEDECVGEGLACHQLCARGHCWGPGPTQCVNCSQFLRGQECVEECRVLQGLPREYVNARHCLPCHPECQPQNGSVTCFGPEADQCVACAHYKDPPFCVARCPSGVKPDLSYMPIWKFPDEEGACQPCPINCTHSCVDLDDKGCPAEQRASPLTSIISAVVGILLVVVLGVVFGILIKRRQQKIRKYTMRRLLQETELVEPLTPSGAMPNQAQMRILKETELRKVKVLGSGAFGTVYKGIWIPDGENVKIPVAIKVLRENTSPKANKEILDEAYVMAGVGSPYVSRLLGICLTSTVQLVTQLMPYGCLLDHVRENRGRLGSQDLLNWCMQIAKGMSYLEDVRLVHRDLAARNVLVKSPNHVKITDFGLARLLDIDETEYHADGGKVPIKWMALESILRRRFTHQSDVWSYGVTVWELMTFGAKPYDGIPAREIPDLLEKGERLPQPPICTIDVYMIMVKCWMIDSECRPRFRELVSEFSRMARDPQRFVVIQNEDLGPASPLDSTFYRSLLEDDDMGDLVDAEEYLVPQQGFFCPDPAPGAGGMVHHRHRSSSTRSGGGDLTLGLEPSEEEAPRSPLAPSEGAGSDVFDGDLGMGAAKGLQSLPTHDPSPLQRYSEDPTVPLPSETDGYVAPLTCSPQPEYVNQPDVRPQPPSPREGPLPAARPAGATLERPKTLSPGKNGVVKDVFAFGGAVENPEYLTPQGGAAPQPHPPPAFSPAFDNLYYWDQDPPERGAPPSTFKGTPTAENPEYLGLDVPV", "assay": "Tumor p-erbB2 reduction (PD) by ELISA in BT-474 tumor-bearing mice", "format": "in vivo", "conditions": "0.5 hr after dosing on day 28", "procedure": "(§1) Whole blood samples (˜50 μl) were collected at 0.5, 1, 2, 4 & 8 h post-dose on day 28 for PK analysis as described below. Tumors were isolated 0.5 h post-dose on day 28 for PD analysis by ELISA.\nThe p-erbB2 levels, i.e., the level of the phosphorylated form of erbB2, were also determined in tumor samples of all groups at 0.5 hr post-dosing on day 28 (Table 5)."}, "[2]": {"assay": "Whole blood pharmacokinetics of agent 182 in BT-474 tumor-bearing mice (LC-MS/MS)", "format": "in vivo", "conditions": "for Cmax: mouse; for Cave0-2 h of Agent 182: day 28", "procedure": "as §1\nBlood Sample Analysis: Aliquots (100 μL) of whole blood were diluted with 100 μL acetonitrile (25%) containing an internal standard (CP-702,453, 0.5 μg/ml). Samples were extracted with methyl-tert-butyl ether (MTBE) and 0.1M sodium hydroxide by liquid-liquid extraction using a 96-well technology. After brief vortexing, samples were centrifuged (3000 rpm for 10 min) and the supernatant was transferred into a 96-well plate and evaporated to dryness at 40° C. under a slow stream of nitrogen gas. The residue was reconstituted with 200 μL of 25% acetonitrile and vortexed for approximately 2 min.\nThe mobile phase was delivered as 90% 10 mM ammonium acetate with 0.1% formic acid and 10% acetonitrile for the first 1 min followed by a linear gradient from 10% to 90% acetonitrile over 1 min. Then the mobile phase was delivered isocratically at 90% acetonitrile for 1 min before a subsequent gradient back to 10% acetonitrile over 0.1 min. The column was then allowed to re-equilibrate at 90% 10 mM ammonium acetate with 0.1% formic acid and 10% acetonitrile for 1.0 min before the next sample injection.\nData collection and integration were accomplished using Analyst (version 1.2). The ratio of peak area responses of drug relative to internal standard was used to construct a standard curve using a linear least squares regression with a 1/x weighting. The dynamic range of the assay was 1.0 to 1000 ng/mL. The performance of the assay was monitored by inclusion of quality control samples prepared in mouse whole blood from a separate weighing. Further details are located in notebook #62874.\nPK Data Calculation: Pharmacokinetic parameters were determined by the noncompartmental methods using WinNonLin™, version 3.2. The maximum whole blood concentration (Cmax) and the time at which this concentration was achieved (Tmax) were directly taken from the raw data. Area under the whole blood concentration versus time curve (AUC) was calculated using linear trapezoidal approximation. For estimation of the means and pharmacokinetic parameters, concentrations at the 0 hr and those <LLOQ (1 ng/mL) were assumed to be 0 ng/mL. The means were calculated only if more than 50% of the data exceeded LLOQ of the assay."}, "[3]": {"assay": "Body weight and tolerability in BT-474 tumor-bearing mice", "protocol": "Cells were inoculated SC (5 million cells/animal) into female athymic mice. […] The tumor measurements and body weight changes were obtained on days 1, 5, 8, 12, 15, 19, 22, 26 and 28. Tumor volume was calculated by the following formula: Tumor volume (mm^3)=(W×W)/2×L (L=length & W=width).\n• Values given represent the average tumor volume (mm^3) ±SE; Values in parenthesis are the average body weight (g). • % Growth Inhibition=[Tumor volume on day 28 of treated group (mm^3)×100/Tumor volume on day 28 of vehicle group (mm^3)]−100 • % Regression=[Tumor volume on day 28 (mm^3)×100/Tumor volume on day 1(mm^3)]−100"}, "[4]": {"test_system": "BT-474 human breast adenocarcinoma", "assay": "BT-474 xenograft tumor growth inhibition in athymic female mice", "format": "in vivo", "procedure": "The activity of the compounds of formula 1, in vivo, can be determined by the amount of inhibition of tumor growth by a test compound relative to a control. The tumor growth inhibitory effects of various compounds are measured according to the method of Corbett T. H., et al., “Tumor Induction Relationships in Development of Transplantable Cancers of the Colon in Mice for Chemotherapy Assays, with a Note on Carcinogen Structure”, Cancer Res., 35, 2434-2439 (1975) and Corbett T. H., et al., “A Mouse Colon-tumor Model for Experimental Therapy”, Cancer Chemother. Rep. (Part 2)”, 5, 169-186 (1975), with slight modifications. Tumors are induced in the left flank by subcutaneous (sc) injection of 5 million log phase cultured tumor cells (BT-474 human breast adenocarcinoma) suspended in Matrigel (1:1 in PBS). […] Rep., 3, 1-104 (1972). Results are expressed as percent inhibition, according to the formula: Inhibition (%)=(TuWcontrol−TuWtest)/TuWcontrol×100%. The flank site of tumor implantation provides reproducible dose/response effects for a variety of chemotherapeutic agents, and the method of measurement (tumor diameter) is a reliable method for assessing tumor growth rates.\nStatistical Analysis: The statistical analysis of tumor growth was done using SAS Version 8, PROC GLM by Non-clinical statistical group."}}}
{"smiles": "COCC(=O)NC/C=C/c1ccc2ncnc(Nc3ccc(Oc4ccc(C)nc4)c(C)c3)c2c1", "note": "[Agent 182, E-2-Methoxy-N-(3-{4-[3-methyl-4-(6-methyl-pyridin-3-yloxy)-phenylamino]-quinazolin-6-yl}-allyl)-acetamide]", "values": [{"measurement": "% Reduction of erbB2-autophosphorylation", "setting": "[1]; Agent 182 25 mg/kg PO QD, 25 mg/kg", "value": "16 ± 5 (N = 3) %"}, {"measurement": "% Reduction of erbB2-autophosphorylation", "setting": "[1]; Agent 182 25 mg/kg PO QD, listed as agent 182, 25 mg/kg", "value": "Approximately 16%"}, {"measurement": "% Reduction of erbB2-autophosphorylation", "setting": "[1]; Agent 182 50 mg/kg PO QD", "value": "57 ± 5 (N = 4) %"}, {"measurement": "Cmax", "setting": "[2]; female, athymic, whole blood, po, 25 mg/kg", "value": 365, "unit": "ng/mL"}, {"measurement": "Cmax", "setting": "[2]; female, athymic, whole blood, po, 50 mg/kg", "value": "2440 ± 740", "unit": "ng/mL"}, {"measurement": "Cmax", "setting": "[2]; in vivo, 25 mg/kg group, earlier observations", "value": "417 to 967", "unit": "ng/mL"}, {"measurement": "Cave0-2 h of Agent 182", "setting": "[2]; whole blood, Agent 182 25 mg/kg PO QD", "value": "186 ± 71", "unit": "ng/mL"}, {"measurement": "Cave0-2 h of Agent 182", "setting": "[2]; whole blood, Agent 182 50 mg/kg PO QD", "value": "1050 ± 330", "unit": "ng/mL"}, {"measurement": "Average body weight Day 1", "setting": "[3]; Agent 182 25 mg/kg PO QD", "value": "(21) g"}, {"measurement": "Average body weight Day 1", "setting": "[3]; Agent 182 50 mg/kg PO QD", "value": "(23) g"}, {"measurement": "Average body weight Day 28", "setting": "[3]; Agent 182 25 mg/kg PO QD", "value": "(23) g"}, {"measurement": "Average body weight Day 28", "setting": "[3]; Agent 182 50 mg/kg PO QD", "value": "(25) g"}, {"measurement": "% Growth inhibition", "setting": "[4]; 28 days, Agent 182 50 mg/kg PO QD", "value": 40, "unit": "%"}, {"measurement": "Tumor volume Day 28", "setting": "[4]; Agent 182 25 mg/kg PO QD", "value": "327 ± 45", "unit": "mm^3"}, {"measurement": "Tumor volume Day 28", "setting": "[4]; Agent 182 50 mg/kg PO QD", "value": "246 ± 36", "unit": "mm^3"}, {"measurement": "Efficacy against BT-474 tumors which over-express erbB2", "setting": "[4]; background statement", "value": "efficacious"}]}
